Data taken from patent US20070078111A1, “LPA2 receptor agonist inhibitors of CFTR” (priority 2005, published 2007).

What was measured:
[1] = test system: CFTR; assay: Iodide efflux measurements in Calu-3 cells; assay type: cell-based, human; conditions: for CFTR activity, peak iodide efflux in response to adenosine: adenosine as CFTR agonist, FIG. 2C
[2] = biological target: T1, NHERF2 (Homo sapiens, UniProt Q15599); assay: NHERF2 binding to LPA2 in the presence of LPA2-specific peptide; conditions: FIG. 4H
T1 construct: GST
T1 sequence (Q15599 whole entry): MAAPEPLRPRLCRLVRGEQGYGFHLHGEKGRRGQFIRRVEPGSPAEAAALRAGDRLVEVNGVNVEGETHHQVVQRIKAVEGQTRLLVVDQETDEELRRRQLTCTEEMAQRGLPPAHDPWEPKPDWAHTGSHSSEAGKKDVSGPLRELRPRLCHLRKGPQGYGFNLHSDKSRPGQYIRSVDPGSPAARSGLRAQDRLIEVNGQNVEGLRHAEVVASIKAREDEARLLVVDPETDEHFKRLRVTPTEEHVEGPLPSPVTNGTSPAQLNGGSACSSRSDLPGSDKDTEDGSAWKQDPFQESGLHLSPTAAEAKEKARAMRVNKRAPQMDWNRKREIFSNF
Protocol: This assay (34) was performed using maltose binding protein (MBP)-CFTR-C tail fusion protein (1 μM) immobilized on amylose beads (20 μl) and incubated with GST-NHERF2. This step, which is called pairwise binding, was done in 200 μl of lysis buffer (PBS-0.2% Triton-X 100+protease inhibitors) and mixed at 22° C. for 2 h. The complex was washed once with the same buffer and allowed to bind Flag-tagged LPA2 from lysates of BHK cells expressing the receptor. The binding was done at 4° C. for 3 h with constant mixing. The complex was washed with lysis buffer, eluted with sample buffer, and analyzed by immunoblotting using anti-Flag monoclonal antibody.

[3] = test system: CFTR Cl- channel; assay: Short-circuit current (Isc) in polarized Calu-3 monolayers; assay type: cell-based, human
Protocol: (§1) Calu-3 and HT29-CL19A polarized cell monolayers were grown to confluency on Costar Transwell permeable supports (filter area is 0.33 cm^2). Filters were mounted in an Ussing chamber, and short-circuit currents (Isc) mediated through CFTR Cl^− channel were carried out as described previously (31). Epithelia were bathed in Ringer's solution (mM) (serosal/basolateral: 140 NaCl^−, 5 KCl, 0.36 K2HPO4, 0.44 KH2PO4, 1.3 CaCl2, 0.5 MgCk2, 4.2 NaHCO3, 10 Hepes, 10 glucose, pH 7.2, [Cl^−]=149), and low Cl-Ringer's solution (mM) (luminal/apical: 133.3 Na-gluconate, 5 K-gluconate, 2.5 NaCl, 0.36 K2HPO4, 0.44 KH2PO4, 5.7 CaCl2, 0.5 MgCl2, 4.2 NaHCO3, 10 Hepes, 10 mannitol, pH 7.2, [Cl^−]=14.8) at 37° C., gassed with 95% O2 and 5%) […] CO2. LPA (20:4) was added into both the luminal (apical) side and serosal (basolateral) side of the cell monolayers for 30 min before adenosine (ADO) was added into the luminal/apical side. […]

[4] = biological target: LPA2 receptor (Homo sapiens, UniProt Q9HBW0); assay: LPA2 receptor agonist activity (EC50, Emax); assay type: cell-based; conditions: for LPA2 (Emax): value in parentheses
Chain of LPA2 receptor (Q9HBW0 whole entry): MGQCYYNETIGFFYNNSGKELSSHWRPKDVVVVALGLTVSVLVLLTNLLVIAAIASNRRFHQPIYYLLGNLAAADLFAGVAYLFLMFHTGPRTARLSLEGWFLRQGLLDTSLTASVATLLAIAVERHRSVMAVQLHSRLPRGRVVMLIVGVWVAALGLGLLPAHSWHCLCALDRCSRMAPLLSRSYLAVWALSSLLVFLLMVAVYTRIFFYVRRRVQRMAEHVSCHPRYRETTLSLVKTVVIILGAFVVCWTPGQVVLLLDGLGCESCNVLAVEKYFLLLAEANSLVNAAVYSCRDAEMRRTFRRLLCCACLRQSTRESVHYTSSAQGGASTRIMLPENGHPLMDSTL

[5] = test system: CTX-induced Cl- secretion; assay type: in vivo, C57BL/6 mice; conditions: 6 hours
[6] = test system: CTX-induced intestinal fluid secretion; assay type: in vivo, CD1 mice
[7] = test system: CFTR Cl- channel; assay: Short-circuit current (Isc) in polarized HT29-CL19A monolayers; assay type: cell-based, human; conditions: HT29 cells; LPA (20:4) pretreatment 30 min; FIG. 2E
Protocol: as §1

[8] = test system: CFTR Cl- channel; assay: Short-circuit current (Isc) in isolated mouse intestine; conditions: isolated mouse intestine pretreated with LPA (20:4); dose-dependent; FIG. 2G, 2H
Protocol: as §1

## pertussis toxin [PTX]
[1]; Calu-3 cells pretreated with PTX 100 or 200 ng/ml for 24 h
  reversal of LPA-dependent inhibition of CFTR function (iodide efflux): reversed LPA-dependent inhibition of CFTR function in a dose-dependent fashion

## LPA2-specific peptide: peptide containing the PDZ motif of LPA2 (last 11 amino acids; a.a. 341 to 351, ENGHPLMDSTL)
[2]
  competition with LPA2 for binding to NHERF2: could compete with LPA2 for binding to NHERF2 in a dose-dependent manner
[3]; peptide delivered with Chariot, 25 μM LPA (20:4) 30 min, adenosine 0-20 μM, FIG. 4F
  reversal of LPA-elicited inhibition on CFTR-dependent Cl- currents (Isc): significantly reversed

## phosphatidic acid [PA]
[1]; Calu-3 cells
  CFTR activity, peak iodide efflux in response to adenosine: did not show any significant effect

## CCCCCCCC/C=C\CCCCCCCC(=O)OC[C@@H](O)COP(=O)(O)O [LPA 18:1]
[1]; Calu-3 cells, […], FIG. 2D
  rank order of inhibition of peak iodide efflux in response to adenosine: LPA 20:4>LPA 18:2>LPA 18:1

## CCCC/C=C\CCCCCCCCOP(O)(O)=S [Thiophosphoric acid O-tetradec-9-enyl ester]
[4]
  binding to the LPA2 receptor and thereby inhibiting CFTR activation: particularly effective
[4]; Table 1
  EC50: 480 nM
  LPA2 (Emax): 150

## CCCCCCCC(=O)OC[C@@H](COP(O)(O)=S)OC(=O)CCCCCCC [(S)-Octanoic acid 1-octanoyloxymethyl-2-thiophosphonooxy-ethyl ester]
[4]; Table 1
  LPA2 (Emax): 17

## CC=CCC=CCC=CCCCCCCCCC1OCC(COP(=O)(O)O)O1.[K] (stereo not drawn) [Mono potassium phosphoric acid O-(2-heptadec-9,12,15-trienyl-(1,3)-dioxolan-4-ylmethyl) ester]
[4]; Table 2
  EC50: 1710 nM
  LPA2 (Emax): 51

## CCCCCCCC=CCCCCCCCC[C@H]1OC[C@H](COP([O-])(O)=S)O1.[K+] [(2S,4R) Mono potassium thiophosphoric acid O-(2-heptadec-9-enyl-(1,3)-dioxolan-4-ylmethyl) ester]
[4]; Table 2
  EC50: 1300 nM
  LPA2 (Emax): 77

## CCCCCCCC/C=C\CCCCCCCCOP(O)(O)=S [FAP 18:1d9, fatty alcohol thiophosphate 18:1d9]
[5]
  intestinal fluid accumulation: significantly reduced
  ratio of intestinal weight before to after luminal fluid removal: statistically significant reduction

## CCCC/C=C\CCCCCCCCOP(=O)(O)O [Phosphoric acid monotetradec-9-enyl ester]
[4]; Table 1
  EC50: 397 nM
  LPA2 (Emax): 58

## CCCCCCCC=CCCCCCCCC[C@@H]1OC[C@@H](COP([O-])(O)=S)O1.[K+] [(2R,4S) Mono potassium thiophosphoric acid O-(2-heptadec-9-enyl-(1,3)-dioxolan-4-ylmethyl) ester]
[4]; Table 2
  EC50: 1540 nM
  LPA2 (Emax): 72

## CCCCCCCC=CCCCCCCCC[C@@H]1OC[C@H](COP(=O)([O-])O)O1.[K+] [(2R,4R) Mono potassium phosphoric acid O-(2-heptadec-9-enyl-(1,3)-dioxolan-4-ylmethyl) ester]
[4]; Table 2
  EC50: 1710 nM
  LPA2 (Emax): 42

## CC/C=C\CCCCCCCCCCOP(=O)(O)O [Phosphoric acid monotetradec-11-enyl ester]
[4]; Table 1
  EC50: 4100 nM
  LPA2 (Emax): 75

## CCCCCCCC/C=C\CCCCCCCCOP(O)(O)=S [drawing 12, Thiophosphoric acid O-octadec-9-enyl ester]
[4]
  binding to the LPA2 receptor and thereby inhibiting CFTR activation: particularly effective
[4]; Table 1
  EC50: 244 nM
  LPA2 (Emax): 175

## CCCCCCCC=CCCCCCCCCC1OCC(COP(O)(O)=S)O1.[K] (stereo not drawn) [Mono potassium thiophosphoric acid O-(2-heptadec-9-enyl-(1,3)-dioxolan-4-ylmethyl) ester]
[4]; Table 2
  EC50: 1170 nM
  LPA2 (Emax): 87

## CCCCCCCCCCCCCCOP(O)(O)=S [Thiophosphoric acid O- tetradecyl ester]
[4]
  binding to the LPA2 receptor and thereby inhibiting CFTR activation: particularly effective
[4]; Table 1
  EC50: 2500 nM
  LPA2 (Emax): 100

## lysophosphatidic acid [LPA]
[1]; Calu-3 cells, LPA alone, no cpt-cAMP
  effect of LPA alone on CFTR channel function (iodide efflux): had no effect
[1]; Calu-3 cells
  CFTR activity, peak iodide efflux in response to adenosine: dose-dependent inhibition
[1]; LPA pretreatment, FIG. 2A: LPA 18:1 (20 μM), cpt-cAMP 200 μM
  response of Calu-3 cells to cpt-cAMP stimulation (iodide efflux): reduced the response
[3]; Calu-3 cells, LPA pretreatment 30 min, FIG. 2F
  CFTR-dependent Cl- currents (Isc) in response to adenosine: significantly inhibited
[5]
  ratio of intestinal weight before to after luminal fluid removal: statistically significant reduction
[6]; 6 h
  CTX-elicited CFTR-dependent intestinal fluid secretion (ileal loop weight): significantly reducing fluid accumulation to the level of PBS control loops
[6]; mouse, in vivo
  fluid accumulation in toxin-treated intestinal loops: efficiently reduced the fluid accumulation
[7]
  CFTR-dependent Cl- currents (Isc) in response to adenosine: significantly inhibited
[8]
  Isc in response to cpt-cAMP stimulation: inhibited

## CC/C=C\CCCCCCCCOP(=O)(O)O [Phosphoric acid monododec-9-enyl ester]
[4]; Table 1
  EC50: 717 nM
  LPA2 (Emax): 78

## CCCCCCCC=CCCCCCCCC[C@H]1OC[C@@H](COP([O-])(O)=S)O1.[K+] [(2S,4S) Mono potassium thiophosphoric acid O-(2-heptadec-9-enyl-(1,3)-dioxolan-4-ylmethyl) ester]
[4]; Table 2
  EC50: 1320 nM
  LPA2 (Emax): 87

## CCCCCCCC(=O)OC[C@H](COP(O)(O)=S)OC(=O)CCCCCCC [(R)-Octanoic acid 1-octanoyloxymethyl-2-thiophosphonooxy-ethyl ester]
[4]; Table 1
  LPA2 (Emax): 58

## CC/C=C\CCCCCCCCOP(O)(O)=S [drawing 10, Thiophosphoric acid O-dodec-9-enyl ester]
[4]
  binding to the LPA2 receptor and thereby inhibiting CFTR activation: particularly effective
[4]; Table 1
  EC50: 677 nM
  LPA2 (Emax): 100

## CCCCCCCC=CCCCCCCCC[C@@H]1OC[C@H](COP([O-])(O)=S)O1.[K+] [(2R,4R) Mono potassium thiophosphoric acid O-(2-heptadec-9-enyl-(1,3)-dioxolan-4-ylmethyl) ester]
[4]; Table 2
  EC50: 1090 nM
  LPA2 (Emax): 85

## CCCCCCCCOC[C@H](COP(O)(O)=S)OCCCCCCCC [(R)-Thiophosphoric acid O-(2,3-bis-octyloxy-propyl) ester]
[4]; Table 1
  EC50: 5720 nM
  LPA2 (Emax): 27

## CCCCCCCCCCCCOP(=O)(O)O [Phosphoric acid monododecyl ester]
[4]; Table 1
  EC50: 3100 nM
  LPA2 (Emax): 50

## CCCCCCCCCCOP(O)(O)=S [Thiophosphoric acid O- decyl ester]
[4]; Table 1
  EC50: 4570 nM
  LPA2 (Emax): 100

## CCCCCCCCCCCCOP(O)(O)=S [Thiophosphoric acid O- dodecyl ester]
[4]
  binding to the LPA2 receptor and thereby inhibiting CFTR activation: particularly effective
[4]; Table 1
  EC50: 1000 nM
  LPA2 (Emax): 100

## CCCCCCCCCCOP(=O)(O)O [Phosphoric acid monodecyl]
[4]; Table 1
  EC50: 1800 nM
  LPA2 (Emax): 82

## C=CCCCCCCCCOP(=O)(O)O [Phosphoric acid monodec-9-enyl ester]
[4]; Table 1
  EC50: 3800 nM
  LPA2 (Emax): 100
